The results in this text go back to patent US11110115B2, “Nucleic acid molecule with anti-inflammatory and anti-coagulant and organ-protective properties” (APTAHEM AB, priority 2017, dated 2021).

Assay [1] in a line: Tail bleeding model (bleeding time). The assay is classed as in vivo, Sprague-Dawley rats. The following applies: SEQ ID NO:2 5, 20, 40 mg/kg i.v. 5 min before, Rivaroxaban 10 mg/kg PO 1 hour before, Warfarin 0.5 mg/kg IV. How it is done:
A total of 36 Sprague-Dawley male and female rats were utilized and divided into six groups comprising of 6 animals per group. Animal handling was performed according to guidelines of the National Institute of Health and the Association for Assessment and Accreditation of Laboratory Animal Care. Animals were fed ad libitum a commercial rodent diet (Teklad Certified Global 18% Protein Diet cat #: 2018SC). Animals had free access to autoclaved and acidified drinking water (pH between 2.5 and 3.5) obtained from the municipality supply. Animals were housed under standard laboratory conditions, air conditioned and filtered with adequate fresh air supply. Animals were kept in a climate controlled environment.
SEQ ID NO:2 (Biospring) (100 mg) was dissolved in 5 ml saline to form a stock solution of 20 mg/ml. Vehicle (saline) was provided by Pharmaseed as ready to use for i.v. administration. Rivaroxaban (Bayer, Pharmaseed Ltd) dosing solution was diluted at 10 mg/kg (Group 2M). Warfarin (Ceriliant, Pharmaseed Ltd) was diluted at 0.5 mg/kg (Group 3M). Both Rivaroxaban and Warfarin are clinical standards with anticoagulation activity. To obtain SEQ ID NO:2 dosing solution (2.5 mg/ml) for dose level of 5 mg/kg and dose volume of 2 ml/kg for i.v. injection, 0.375 ml of the above 20 mg/ml stock solution was diluted with 2.625 ml of saline (Group 4M). To obtain SEQ ID NO:2 dosing solution (10 mg/ml) for dose level of 20 mg/kg and dose volume of 2 ml/kg for i.v. injection, 1.5 ml of the above 20 mg/ml stock solution was diluted with 1.5 ml saline (Group 5M). To obtain SEQ ID NO:2 dosing solution (20 mg/ml) for dose level of 40 mg/kg and dose volume of 2 ml/kg for i.v. injection, the above 20 mg/ml stock used (Group 6).
Rats were intravenously injected five minutes before bleeding time assay. […] Three treated groups received SEQ ID NO:2 at dose levels of 5, 20 and 40 mg/kg saline solution. In each gender, control groups received saline Vehicle. A positive control group received Rivaroxaban (10 mg/kg). Rivaroxaban was administered by oral gavage 1 hour before bleeding time assay. A second positive control groups received Warfarin (0.5 mg/kg).
Male and female rats were anaesthetized by intraperitoneal injection of ketamine/xylazine. Bleeding time was monitored as described in Stupnisek et al. (2012), until blood flow stopped for a complete 30-sec interval or till the end of 30 min period. In deeply anaesthetized rats (placed in ventral position) the tail was transected with a surgical scalpel 2 mm from the tip (and submerged into a tube with 40 ml of saline at room temperature in vertical position) and the duration and amount of bleeding was measured to evaluate the hemostatic effect of the agents or saline administration. Following the completion of bleeding time evaluation, all rats were immediately sacrificed by CO2 asphyxiation.
Numerical results were given as means±standard errors. If applicable, statistical analysis was carried out using one-way ANOVA followed by Dunnett's Multiple Comparison post Test. A probability of 5% (p≤0.05) was regarded as significant.

Assay [2] in a line: Arteriovenous shunt model, thrombus weight. The assay is classed as in vivo, Sprague-Dawley male rats. To be noted: SEQ ID NO:2 33.3 mg/kg i.v. 5 min prior; Rivaroxaban 10 mg/kg p.o. 90 min prior; 15 min extracorporeal circulation. The procedure:
This study was conducted at Shanghai WuXi AppTec Co., Ltd., and in accordance with WuXi IACUC standard animal procedures along with the IACUC guidelines that are in compliance with the Animal Welfare Act, the Guide for the Care and Use of Laboratory Animals, and the Office of Laboratory Animal Welfare (OLAW). Sprague-Dawley male rats with body weight ranging between 150-200 g (Vital River; Bejing, P.R. China) were fed ad libitum a rodent diet. Animals had free access to autoclaved and acidified drinking water. Animals were housed under standard laboratory conditions, air conditioned and filtered with adequate fresh air supply. Animals were kept in a climate controlled environment. Rivaroxaban (10 mg/kg) has been dissolved in water and stored at 4° C. 20 mg SEQ ID NO:2 (Biospring) was dissolved in 3 ml Saline, vortexed for 5 min., sonicated with a water bath ultrasonic for 1 minute to achieve 6.66 mg/ml SEQ ID NO:2. The animals were assigned to 3 dosing groups according to the body weight (see table 2). […] Extracorporeal circulation was maintained for 15 min, the thrombus weight formed on the thread was calculated by subtracting the average weight of the rough nylon thread. Significance of difference between control and treated groups was analyzed by performing analysis of variance (ANOVA) by EXCEL office software.

Assay [3] is described as follows: Prothrombin time in arteriovenous shunt model. The assay is classed as in vivo, Sprague-Dawley male rats. The following applies: SEQ ID NO:2 33.3 mg/kg i.v. 5 min prior; Rivaroxaban 10 mg/kg p.o. 90 min prior. The procedure: FIG. 2: Anti-coagulant activity of SEQ ID NO:2 in Arteriovenous Shunt model. Male rats were intravenously injected with saline (Vehicle) or SEQ ID NO:2 solution, according to their body weight. Rivaroxaban was orally administered to the positive control group. 5 to 90 minutes after administration, rats were anesthetized with pentobarbital-na (50 mg/kg). The left jugular vein and the right carotid artery of anesthetized rats were connected with two catheters. The thrombus weight formed on the thread was calculated by subtracting the average weight of the rough nylon thread (A). Prothrombin times were measured (B) and Activated partial thromboplastin times (APTT) were analysed (C). Each bar represents the mean±SEM (n=8 for vehicle and rivaroxaban groups, n=3 for SEQ ID NO:2 group), *p<0.05, **p<0.01, ***p<0.001 vs Vehicle.
The animals were assigned to 3 dosing groups according to the body weight (see table 2). Vehicle treated animals were intravenously injected with saline 90 min prior to shunt assay. The positive control treated animals were orally given Rivaroxaban 10 mg/kg at 90 min prior to shunt assay. SEQ ID NO:2 was intravenously injected 5 min prior to shunt assay.

Assay [4] in a line: Activated partial thromboplastin time (APTT) in arteriovenous shunt model. The assay is classed as in vivo, Sprague-Dawley male rats. To be noted: SEQ ID NO:2 33.3 mg/kg i.v. 5 min prior; Rivaroxaban 10 mg/kg p.o. 90 min prior.

Regarding `O=C(NC[C@H]1CN(c2ccc(N3CCOCC3=O)cc2)C(=O)O1)c1ccc(Cl)s1` [Rivaroxaban, reference compound], the “group average bleeding time compared to matched vehicle group” value in assay [1] (female rats) and in assay [1] (male rats) was “increased significantly” throughout. Also, the “thrombus weight, less than vehicle group” value in assay [2] is listed as 26.5%. Further, in assay [3], the “Prothrombin times compared to vehicle group” value is “significantly prolonged”. Moreover, the “Activated Partial Thromboplastin Time (APTT) compared to vehicle group” value in assay [4] is on record as “did not show any different”.
With `CC(=O)CC(c1ccccc1)c1c(O)c2ccccc2oc1=O` (stereo not shown) [Warfarin, reference compound], the “group average bleeding time compared to matched vehicle group” value in assay [1] (female rats) and in assay [1] (male rats) was “increased significantly” each time.
